ChEMBL document CHEMBL5678804 (Cancer Cell, 2011)
The source made the active and inactive calls. The rule behind the calls is not given here.

Key:
[1] = target: Tyrosine-protein kinase Mer (Homo sapiens, UniProt Q12866); assay: Inhibition of human wild type MER using PolyEY as substrate preincubated for 2 hrs followed by ATP addition and measured every 2 mins for […] by spectrophotometric analysis
[2] = target: Mitogen-activated protein kinase kinase kinase kinase 4 (Homo sapiens, UniProt O95819); assay: Inhibition of human wild type HGK using Casein as substrate preincubated for 2 hrs followed by ATP addition and measured every 2 mins for […] by spectrophotometric analysis
[3] = target: Tyrosine-protein kinase receptor TYRO3 (Homo sapiens, UniProt Q06418); assay: Inhibition of human wild type SKY using PolyEY as substrate preincubated for 2 hrs followed by ATP addition and measured every 2 mins for […] by spectrophotometric analysis
[4] = target: Serine/threonine-protein kinase A-Raf (Homo sapiens, UniProt P10398); assay: Inhibition of human ARAF preincubated for 2 hrs followed by ATP addition and measured every 2 mins for […] by spectrophotometric analysis
[5] = target: Cytoplasmic tyrosine-protein kinase BMX (Homo sapiens, UniProt P51813); assay: Inhibition of human wild type Bmx using PolyEY as substrate preincubated for 2 hrs followed by ATP addition and measured every 2 mins for […] by spectrophotometric analysis
[6] = target: Tyrosine-protein kinase BTK (Homo sapiens, UniProt Q06187); assay: Inhibition of human wild type BTK using PolyEY as substrate preincubated for 2 hrs followed by ATP addition and measured every 2 mins for […] by spectrophotometric analysis
[7] = target: Macrophage-stimulating protein receptor (Homo sapiens, UniProt Q04912); assay: Inhibition of human wild type RON using PolyEY as substrate preincubated for 2 hrs followed by ATP addition and measured every 2 mins for […] by spectrophotometric analysis
[8] = target: STE20-like serine/threonine-protein kinase (Homo sapiens, UniProt Q9H2G2); assay: Inhibition of human wild type SLK using RB-S6P as substrate preincubated for 2 hrs followed by ATP addition and measured every 2 mins for […] by spectrophotometric analysis
[9] = target: Tyrosine-protein kinase Srms (Homo sapiens, UniProt Q9H3Y6); assay: Inhibition of human wild type SRMS using PolyEY as substrate preincubated for 2 hrs followed by ATP addition and measured every 2 mins for […] by spectrophotometric analysis
[10] = target: Tyrosine-protein kinase SYK (Homo sapiens, UniProt P43405); assay: Inhibition of human wild type SYK using PolyEY as substrate preincubated for 2 hrs followed by ATP addition and measured every 2 mins for […] by spectrophotometric analysis
[11] = target: Activated CDC42 kinase 1 (Homo sapiens, UniProt Q07912); assay: Inhibition of human wild type ACK1 using PolyEY as substrate preincubated for 2 hrs followed by ATP addition and measured every 2 mins for […] by spectrophotometric analysis
[12] = target: Mitogen-activated protein kinase 3 (Homo sapiens, UniProt P27361); assay: Inhibition of human wild type ERK1 using RBER-CHKtide as substrate preincubated for 2 hrs followed by ATP addition and measured every 2 mins for […] by spectrophotometric analysis
[13] = target: Homeodomain-interacting protein kinase 1 (Homo sapiens, UniProt Q86Z02); assay: Inhibition of human wild type HIPK1 using RBER-CHKtide as substrate preincubated for 2 hrs followed by ATP addition and measured every 2 mins for […] by spectrophotometric analysis
[14] = target: Inhibitor of nuclear factor kappa-B kinase subunit alpha (Homo sapiens, UniProt O15111); assay: Inhibition of human wild type IKK alpha using RBER-CHKtide as substrate preincubated for 2 hrs followed by ATP addition and measured every 2 mins for […] by spectrophotometric analysis
[15] = target: Insulin receptor-related protein (Homo sapiens, UniProt P14616); assay: Inhibition of human wild type IRR using Poly(Ala,Glu,Lys,Tyr)6:2:5:1 as substrate preincubated for 2 hrs followed by ATP addition and measured every 2 mins for […] by spectrophotometric analysis
[16] = target: MAP kinase-activated protein kinase 2 (Homo sapiens, UniProt P49137); assay: Inhibition of human wild type MAPKAPK2 using RBER-CHKtide as substrate preincubated for 2 hrs followed by ATP addition and measured every 2 mins for […] by spectrophotometric analysis
[17] = target: Serine/threonine-protein kinase MARK1 (Homo sapiens, UniProt Q9P0L2); assay: Inhibition of human wild type MARK1 using RBER-CHKtide as substrate preincubated for 2 hrs followed by ATP addition and measured every 2 mins for […] by spectrophotometric analysis
[18] = target: Myosin light chain kinase 2, skeletal/cardiac muscle (Homo sapiens, UniProt Q9H1R3); assay: Inhibition of human wild type MLCK2 using RB-S6P as substrate preincubated for 2 hrs followed by ATP addition and measured every 2 mins for […] by spectrophotometric analysis
[19] = target: Ribosomal protein S6 kinase alpha-4 (Homo sapiens, UniProt O75676); assay: Inhibition of human wild type MSK2 using RBER-CHKtide as substrate preincubated for 2 hrs followed by ATP addition and measured every 2 mins for […] by spectrophotometric analysis
[20] = target: SRSF protein kinase 3 (Homo sapiens, UniProt Q9UPE1); assay: Inhibition of human wild type MSSK1 using RBER-CHKtide as substrate preincubated for 2 hrs followed by ATP addition and measured every 2 mins for […] by spectrophotometric analysis
[21] = target: Serine/threonine-protein kinase pim-1 (Homo sapiens, UniProt P11309); assay: Inhibition of human wild type PIM1 using RBER-GSK3(14to 27) as substrate preincubated for 2 hrs followed by ATP addition and measured every 2 mins for […] by spectrophotometric analysis
[22] = Inhibition of human wild type PKA using bio-4xCHKT as substrate preincubated for 2 hrs followed by ATP addition and measured every 2 mins for […] by spectrophotometric analysis
[23] = target: Rho-associated protein kinase 1 (Homo sapiens, UniProt Q13464); assay: Inhibition of human wild type ROCK1 using 3xChocktide-PKC([…] to […]) as substrate preincubated for 2 hrs followed by ATP addition and measured every 2 mins for […] by spectrophotometric analysis
[24] = target: Serine/threonine-protein kinase SIK2 (Homo sapiens, UniProt Q9H0K1); assay: Inhibition of human wild type SIK2 using RBER-CHKtide as substrate preincubated for 2 hrs followed by ATP addition and measured every 2 mins for […] by spectrophotometric analysis
[25] = target: Serine/threonine-protein kinase 25 (Homo sapiens, UniProt O00506); assay: Inhibition of human wild type STK25 using Casein as substrate preincubated for 2 hrs followed by ATP addition and measured every 2 mins for […] by spectrophotometric analysis
[26] = target: Tyrosine-protein kinase ZAP-70 (Homo sapiens, UniProt P43403); assay: Inhibition of human wild type ZAP70 using PolyEY as substrate preincubated for 2 hrs followed by ATP addition and measured every 2 mins for […] by spectrophotometric analysis
[27] = tested on: BaF3; assay: In vivo inhibition of BCR-ABL1 T315I signalling in mouse BaF3 cells harbouring BCR-ABL1 T315I mutant xenografted in Balb/c mouse model at 100 mg/kg, po administered as single dose measured after 8 hrs by flow cytometry analysis; format: functional, organism-based
[28] = Toxicity in Balb/c mouse assessed as hindlimb paralysis; conditions: in vivo

Myosin light chain kinase 2, skeletal/cardiac muscle, sequence (Q9H1R3 whole entry): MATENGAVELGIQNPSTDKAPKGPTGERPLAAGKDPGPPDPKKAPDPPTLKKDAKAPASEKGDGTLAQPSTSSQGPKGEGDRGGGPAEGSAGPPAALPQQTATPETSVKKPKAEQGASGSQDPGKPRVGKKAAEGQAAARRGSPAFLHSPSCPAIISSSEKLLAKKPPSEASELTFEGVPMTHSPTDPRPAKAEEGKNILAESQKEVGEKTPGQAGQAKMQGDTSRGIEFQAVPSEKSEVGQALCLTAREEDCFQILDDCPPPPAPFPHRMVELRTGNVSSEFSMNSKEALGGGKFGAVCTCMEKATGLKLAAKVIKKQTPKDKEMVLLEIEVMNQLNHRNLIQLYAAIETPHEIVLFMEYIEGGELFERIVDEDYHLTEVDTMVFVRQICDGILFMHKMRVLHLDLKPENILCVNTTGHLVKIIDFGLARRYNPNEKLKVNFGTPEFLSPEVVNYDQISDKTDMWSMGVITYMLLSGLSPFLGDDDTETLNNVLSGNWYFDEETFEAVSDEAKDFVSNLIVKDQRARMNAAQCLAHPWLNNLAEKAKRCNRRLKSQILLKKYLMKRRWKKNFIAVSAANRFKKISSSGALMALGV
Homeodomain-interacting protein kinase 1, sequence (Q86Z02 whole entry): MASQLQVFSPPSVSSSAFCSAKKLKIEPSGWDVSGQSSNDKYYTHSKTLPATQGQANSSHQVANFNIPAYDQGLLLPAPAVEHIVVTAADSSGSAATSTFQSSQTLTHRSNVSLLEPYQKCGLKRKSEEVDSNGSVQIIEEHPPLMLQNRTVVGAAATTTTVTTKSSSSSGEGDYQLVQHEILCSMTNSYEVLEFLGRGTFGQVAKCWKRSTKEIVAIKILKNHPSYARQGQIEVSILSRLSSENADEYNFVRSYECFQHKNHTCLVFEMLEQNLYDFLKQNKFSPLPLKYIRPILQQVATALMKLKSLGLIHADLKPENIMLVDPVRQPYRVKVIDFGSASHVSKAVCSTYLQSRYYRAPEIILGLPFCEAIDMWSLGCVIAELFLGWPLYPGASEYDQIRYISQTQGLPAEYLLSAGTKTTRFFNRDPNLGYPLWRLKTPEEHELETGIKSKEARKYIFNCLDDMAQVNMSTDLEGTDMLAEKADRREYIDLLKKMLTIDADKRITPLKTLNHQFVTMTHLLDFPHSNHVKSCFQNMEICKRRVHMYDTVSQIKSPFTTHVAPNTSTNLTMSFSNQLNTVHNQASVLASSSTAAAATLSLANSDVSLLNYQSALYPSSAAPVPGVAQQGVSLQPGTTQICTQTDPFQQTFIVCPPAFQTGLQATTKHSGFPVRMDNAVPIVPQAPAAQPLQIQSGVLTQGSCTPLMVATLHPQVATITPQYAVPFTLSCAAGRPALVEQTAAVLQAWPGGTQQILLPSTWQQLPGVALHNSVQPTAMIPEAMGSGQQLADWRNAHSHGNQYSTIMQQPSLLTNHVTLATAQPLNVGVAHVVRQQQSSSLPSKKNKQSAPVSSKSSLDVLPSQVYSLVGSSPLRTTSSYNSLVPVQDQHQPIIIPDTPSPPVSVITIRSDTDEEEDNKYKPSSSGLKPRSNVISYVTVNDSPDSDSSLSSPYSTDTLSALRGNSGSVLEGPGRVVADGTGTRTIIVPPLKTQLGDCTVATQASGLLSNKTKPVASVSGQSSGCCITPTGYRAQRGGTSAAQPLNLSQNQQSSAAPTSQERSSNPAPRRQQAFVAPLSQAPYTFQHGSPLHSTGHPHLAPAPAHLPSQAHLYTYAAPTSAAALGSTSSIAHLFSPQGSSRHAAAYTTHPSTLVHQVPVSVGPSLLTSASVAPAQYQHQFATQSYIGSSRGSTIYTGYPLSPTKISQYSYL
Mitogen-activated protein kinase kinase kinase kinase 4, sequence (O95819 whole entry): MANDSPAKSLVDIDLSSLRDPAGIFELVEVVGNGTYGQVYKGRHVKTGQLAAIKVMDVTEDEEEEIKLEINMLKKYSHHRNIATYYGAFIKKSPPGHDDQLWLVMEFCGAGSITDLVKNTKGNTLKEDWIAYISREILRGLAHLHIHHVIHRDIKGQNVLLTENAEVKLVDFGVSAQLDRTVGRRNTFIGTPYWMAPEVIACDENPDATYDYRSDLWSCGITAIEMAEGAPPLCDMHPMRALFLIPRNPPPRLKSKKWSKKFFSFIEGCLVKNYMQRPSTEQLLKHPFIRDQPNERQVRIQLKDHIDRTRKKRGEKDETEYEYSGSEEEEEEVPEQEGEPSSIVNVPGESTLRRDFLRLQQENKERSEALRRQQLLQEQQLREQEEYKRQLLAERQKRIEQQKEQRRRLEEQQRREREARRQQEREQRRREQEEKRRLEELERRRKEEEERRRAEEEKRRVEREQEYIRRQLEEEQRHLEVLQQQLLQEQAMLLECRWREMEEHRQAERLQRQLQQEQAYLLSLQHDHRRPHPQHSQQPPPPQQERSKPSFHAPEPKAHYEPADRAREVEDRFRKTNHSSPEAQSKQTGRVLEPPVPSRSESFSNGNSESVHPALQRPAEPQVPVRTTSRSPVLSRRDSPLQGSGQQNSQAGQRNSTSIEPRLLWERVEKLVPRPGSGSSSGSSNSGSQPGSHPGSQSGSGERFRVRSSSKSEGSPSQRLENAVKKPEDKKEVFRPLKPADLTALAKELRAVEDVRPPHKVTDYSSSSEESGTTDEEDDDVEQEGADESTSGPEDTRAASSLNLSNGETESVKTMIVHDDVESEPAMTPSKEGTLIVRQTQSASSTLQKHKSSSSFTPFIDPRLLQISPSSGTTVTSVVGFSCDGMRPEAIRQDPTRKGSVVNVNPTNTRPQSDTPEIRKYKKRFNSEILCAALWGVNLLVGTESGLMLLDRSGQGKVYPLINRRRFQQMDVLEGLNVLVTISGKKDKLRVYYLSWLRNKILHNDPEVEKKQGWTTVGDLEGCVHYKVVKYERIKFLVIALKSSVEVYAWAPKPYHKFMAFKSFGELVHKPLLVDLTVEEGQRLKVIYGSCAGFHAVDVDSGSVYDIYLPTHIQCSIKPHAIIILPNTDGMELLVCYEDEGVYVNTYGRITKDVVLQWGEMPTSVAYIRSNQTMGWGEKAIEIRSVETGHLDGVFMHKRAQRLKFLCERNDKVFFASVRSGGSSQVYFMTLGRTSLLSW
Tyrosine-protein kinase Srms, sequence (Q9H3Y6 whole entry): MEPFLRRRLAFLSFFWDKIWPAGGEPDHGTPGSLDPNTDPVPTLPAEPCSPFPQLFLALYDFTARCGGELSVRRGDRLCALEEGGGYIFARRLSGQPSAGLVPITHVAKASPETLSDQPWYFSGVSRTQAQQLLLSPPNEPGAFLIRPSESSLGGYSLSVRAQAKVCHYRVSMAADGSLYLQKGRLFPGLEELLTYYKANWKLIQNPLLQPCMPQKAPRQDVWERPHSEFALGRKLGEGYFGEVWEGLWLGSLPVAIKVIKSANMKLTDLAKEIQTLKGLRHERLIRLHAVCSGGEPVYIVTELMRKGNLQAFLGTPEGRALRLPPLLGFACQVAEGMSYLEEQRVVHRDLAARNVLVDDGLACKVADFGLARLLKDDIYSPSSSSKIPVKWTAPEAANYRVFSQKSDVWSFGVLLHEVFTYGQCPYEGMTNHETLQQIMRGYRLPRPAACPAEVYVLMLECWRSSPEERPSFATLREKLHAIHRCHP
Cytoplasmic tyrosine-protein kinase BMX, sequence (P51813 whole entry): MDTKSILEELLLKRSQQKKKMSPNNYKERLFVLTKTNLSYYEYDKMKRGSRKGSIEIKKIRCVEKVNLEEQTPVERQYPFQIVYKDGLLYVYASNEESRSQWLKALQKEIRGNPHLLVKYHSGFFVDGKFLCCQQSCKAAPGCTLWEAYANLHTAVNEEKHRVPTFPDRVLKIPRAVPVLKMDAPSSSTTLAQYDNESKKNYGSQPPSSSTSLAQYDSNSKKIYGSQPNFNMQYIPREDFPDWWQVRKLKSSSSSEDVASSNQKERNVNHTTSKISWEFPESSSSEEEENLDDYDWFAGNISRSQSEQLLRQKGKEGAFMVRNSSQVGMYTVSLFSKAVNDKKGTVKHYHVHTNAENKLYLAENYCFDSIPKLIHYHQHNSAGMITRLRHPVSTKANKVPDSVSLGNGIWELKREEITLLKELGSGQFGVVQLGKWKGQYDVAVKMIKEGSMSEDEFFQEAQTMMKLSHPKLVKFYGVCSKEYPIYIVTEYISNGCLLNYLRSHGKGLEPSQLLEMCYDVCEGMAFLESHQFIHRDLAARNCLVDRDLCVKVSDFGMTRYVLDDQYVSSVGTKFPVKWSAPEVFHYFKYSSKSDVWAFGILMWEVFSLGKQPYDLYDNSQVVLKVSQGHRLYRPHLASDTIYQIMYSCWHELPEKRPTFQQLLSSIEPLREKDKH
Serine/threonine-protein kinase A-Raf, sequence (P10398 whole entry): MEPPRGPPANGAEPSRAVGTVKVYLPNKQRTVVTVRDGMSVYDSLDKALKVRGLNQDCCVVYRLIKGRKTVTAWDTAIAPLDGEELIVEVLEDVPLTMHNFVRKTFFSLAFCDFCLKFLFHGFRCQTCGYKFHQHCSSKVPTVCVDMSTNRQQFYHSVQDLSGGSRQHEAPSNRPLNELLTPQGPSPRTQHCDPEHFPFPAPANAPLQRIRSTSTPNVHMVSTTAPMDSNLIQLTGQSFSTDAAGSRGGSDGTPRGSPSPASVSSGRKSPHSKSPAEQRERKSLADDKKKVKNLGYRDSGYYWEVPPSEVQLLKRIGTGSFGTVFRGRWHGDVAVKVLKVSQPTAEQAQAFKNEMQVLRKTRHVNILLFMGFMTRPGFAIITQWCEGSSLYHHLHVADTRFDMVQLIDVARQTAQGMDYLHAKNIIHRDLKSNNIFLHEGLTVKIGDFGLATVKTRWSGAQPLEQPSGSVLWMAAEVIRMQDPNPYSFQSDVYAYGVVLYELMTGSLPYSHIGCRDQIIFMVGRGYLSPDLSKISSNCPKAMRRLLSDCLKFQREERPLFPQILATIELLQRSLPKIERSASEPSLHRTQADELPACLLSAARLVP

## CNC(=O)c1cc(Oc2ccc(NC(=O)Nc3cc(C(C)(C)C)nn3-c3ccc4ncccc4c3)c(F)c2)ccn1 [REBASTINIB]
[1]
  IC50: 7.6 nM
[2]
  IC50: 45 nM
[3]
  IC50: 87 nM
[4]
  IC50: 230 nM
[5]
  IC50: 200 nM
[6]
  IC50: 330 nM
[7]
  IC50: 300 nM
[8]
  IC50: 670 nM
[9]
  IC50: 370 nM
[10]
  IC50: 160 nM
[11]
  IC50: > 1000 nM
[12]
  IC50: > 1000 nM
[13]
  IC50: > 1000 nM
[14]
  IC50: > 1000 nM
[15]
  IC50: > 1000 nM
[16]
  IC50: > 1000 nM
[17]
  IC50: > 1000 nM
[18]
  IC50: > 1000 nM
[19]
  IC50: > 1000 nM
[20]
  IC50: > 1000 nM
[21]
  IC50: > 1000 nM
[22]
  IC50: > 1000 nM
[23]
  IC50: > 1000 nM
[24]
  IC50: > 1000 nM
[25]
  IC50: > 1000 nM
[26]
  IC50: > 1000 nM
[27]
  inhibition: Active
[28]
  Activity: Toxic
